Where a name gives a salt, the structure may show the parent alone.
Target: T1, human Arginine Vasopressin Receptor 1a (AVPR1a) (Homo sapiens, UniProt P37288)
T1 construct: expressed in transfected cells; host or cells: CHO (CHO-AVPR1a, kept under G418 selection)
Assay: Vasopressin V1a receptor antagonist assay (FLIPR calcium, CHO-AVPR1a cells)
Format: cell-based
Description: The purpose of this assay was to determine the inhibitory effect of synthesized compounds on the Vasopressin V1a receptor. The assay was performed in Chinese Hamster Ovary (CHO) cells expressing the human Arginine Vasopressin Receptor 1a (AVPR1a). Arginine Vasopressin (AVP) evokes an increase in intracellular calcium in CHO-AVPR1a cells which is measured in a fluorescence assay on the FLIPR^TETRA using calcium sensitive dyes. Test compounds were assessed for their ability to affect the magnitude of the response to AVP, with antagonists showing a concentration-dependent reduction in the AVP-mediated fluorescence. Compounds were tested in duplicate in a 10-point, 1:3 dilution series starting at a nominal concentration of 3 μM in the assay.
CHO-AVPR1a cells were maintained in routine culture in T175 Flasks at 37° C., 5% CO2. The growth medium consists of Ham's F12 media supplemented with 10% v/v fetal bovine serum, 1× non-essential amino acids, and 0.4 mg/ml Geneticin G418.
On day one, cells were harvested from T175 flasks when they are 80-90% confluent by first washing the cell monolayer with PBS and then dissociated using trypsin 0.05%/EDTA (3 mL for a T175 Flask). The flasks were incubated at room temperature until the cells detached. To the cell suspension, 10 ml of growth media was added and the cell density determined using the Vi-Cell automated cell counter. The cells were spun at 1000 rpm for 3 minutes, then the supernatant was carefully removed and discarded. The cell pellet was re-suspended at 6.0e^5 cells/ml in growth media. 25 μL of cells in growth media was dispensed into each well (15,000 cells per well) of a poly-D-lysine coated black, clear bottomed, 384-well plate. The plates were incubated at 37° C., 5% CO2 overnight.
At the start of each assay day, the potency of AVP was assessed and an EC80 concentration determined for subsequent compound profiling. Assays were performed using a two-step addition protocol on the FLIPR^TETRA; first addition of 5 μl of control or test compound at 10× final in assay buffer with 15 min incubation at 37° C., 5% CO2 followed by 10 μl of AVP at 6× final concentration in assay buffer. Changes in fluorescence were monitored for 3 min after both additions on the FLIPR^TETRA using 470-495 nm excitation and 515-575 nm emission wavelengths. The assay buffer consisted of HBSS (+Ca/+Mg) supplemented with 20 mM HEPES, and for the preparation of the AVP agonist only, 0.1% w/v bovine serum albumin. The assay was initiated by the removal of growth media from the cells and replacement with 45 μl of Calcium-6 dye (Molecular Devices) prepared at 1× in assay buffer. Cells were loaded with dye for 60-90 min at 37° C., 5% CO2 before initiation of the FLIPR^TETRA protocol. […] For compound profiling, test compounds were first serially diluted in DMSO (10-point curve, 1:3 dilutions) then diluted 33.3-fold in assay buffer prior to addition to the dye loaded cells on the FLIPR^TETRA. At the end of the incubation period, 10 μl of AVP in assay buffer containing 0.1% BSA was added at the previously determined EC80 concentration.
In-plate controls for the assay included balovaptan and PF-184563 concentration-response curves as reference V1a antagonists, and an AVP concentration-response curve to confirm the reproducibility of the EC80 used for the compound challenge.

T1 sequence (P37288 whole entry): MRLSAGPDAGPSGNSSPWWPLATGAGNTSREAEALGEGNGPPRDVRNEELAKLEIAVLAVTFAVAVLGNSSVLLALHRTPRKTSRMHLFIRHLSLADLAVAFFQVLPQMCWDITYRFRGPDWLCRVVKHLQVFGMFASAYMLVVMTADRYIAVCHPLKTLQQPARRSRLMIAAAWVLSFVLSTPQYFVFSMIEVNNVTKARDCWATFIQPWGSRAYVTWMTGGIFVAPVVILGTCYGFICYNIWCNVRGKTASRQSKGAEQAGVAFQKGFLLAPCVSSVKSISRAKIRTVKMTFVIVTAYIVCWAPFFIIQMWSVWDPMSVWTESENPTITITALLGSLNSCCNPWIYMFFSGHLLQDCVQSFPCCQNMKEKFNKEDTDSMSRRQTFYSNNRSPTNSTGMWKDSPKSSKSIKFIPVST

Row | SMILES | IC50
1 | CN1CCN(C(=O)N2CC3(C2)CN(c2ccc(F)cn2)C3)c2ccc(F)cc21 [8-8] | < 100 nM
2 | Cc1ccc(N2CC3(CN(C(=O)N4CCOc5cc(Cl)ccc54)C3)C2)nc1 [1-13] | < 100 nM
3 | CC1COc2cc(Cl)ccc2N1C(=O)N1CC2(C1)CN(c1ncc(C3CC3)cn1)C2 (stereo not drawn) [21-7] | 100 to 500 nM
4 | O=C(N1CC2(CN(Cc3cccnc3)C2)C1)N1CCOc2cc(Cl)ccc21 [2-3] | ≥ 1000 nM
5 | COc1ccnc(N2CC3(CN(C(=O)N4c5ccc(Cl)cc5OCC4C)C3)C2)n1 (single isomer, unassigned) [20-9-A] | ≥ 1000 nM
6 | Cc1cc(N2CC3(CN(C(=O)N4CCOc5cc(Cl)ccc54)C3)C2)ccn1 [1-36] | ≥ 1000 nM
7 | CN1CCCN(C(=O)N2CC3(C2)CN(c2ccc(F)cn2)C3)c2ccc(F)cc21 [8-10] | < 100 nM
8 | O=C(N1CC2(C1)CN(c1ccnnc1)C2)N1CCOc2cc(Cl)ccc21 [1-25] | ≥ 1000 nM
9 | CC1COc2cc(F)ccc2N1C(=O)N1CC2(C1)CN(c1ncc(F)cn1)C2 (single isomer, unassigned) [18-4-A] | ≥ 1000 nM
10 | Cc1cc(N2CC3(CN(C(=O)N4CCOc5cc(Cl)ccc54)C3)C2)ncc1C#N [1-29] | < 100 nM
11 | CC1COc2cc(F)ccc2N1C(=O)N1CC2(C1)CN(c1ccccn1)C2 (single isomer, unassigned) [1-66-A] | ≥ 1000 nM
12 | CC1COc2cc(F)ccc2N1C(=O)N1CC2(C1)CN(c1cnccn1)C2 (stereo not drawn) [1-65] | < 100 nM
13 | O=C(N1CC2(C1)CN(c1cccc(CO)n1)C2)N1CCOc2cc(Cl)ccc21 [1-32] | 100 to 500 nM
14 | CS(=O)(=O)N1CC2(CN(C(=O)N3CCOc4cc(Cl)ccc43)C2)C1 [10-1, (7-chloro-2,3-dihydro-4H-benzo[b][1,4]oxazin-4-yl)(6-(methylsulfonyl)-2,6-diazaspiro[3.3]heptan-2-yl)methanone] | ≥ 1000 nM
15 | CC1(O)CCN(C(=O)N2CC3(C2)CN(c2ccc(F)cn2)C3)c2ccc(Cl)cc21 (stereo not drawn) [15-1, (6-chloro-4-hydroxy-4-methyl-3,4-dihydroquinolin-1(2H)-yl)(6-(5-fluoropyridin-2-yl)-2,6-diazaspiro[3.3]heptan-2-yl)methanone] | < 100 nM
16 | Cn1ccc(N2CC3(CN(C(=O)N4CCOc5cc(Cl)ccc54)C3)C2)n1 [1-10] | 100 to 500 nM
17 | O=C(N1CC2(C1)CN(c1n[nH]c3ccccc13)C2)N1CCOc2cc(Cl)ccc21 [1-82] | < 100 nM
18 | CC1COc2cc(Cl)ccc2N1C(=O)N1CC2(C1)CN(c1nn(C)c3ncccc13)C2 (single isomer, unassigned) [20-15-A] | 100 to 500 nM
19 | CC1COc2cc(F)c(F)cc2N1C(=O)N1CC2(C1)CN(c1ccc(F)cn1)C2 (single isomer, unassigned) [19-5-A] | 100 to 500 nM

Row | SMILES | IC50
20 | Cc1cc(F)cnc1N1CC2(CN(C(=O)N3CCOc4cc(Cl)ccc43)C2)C1 [1-52] | < 100 nM
21 | Cc1ccnc(N2CC3(CN(C(=O)N4c5ccc(Cl)cc5OCC4C)C3)C2)c1 (single isomer, unassigned) [20-11-B] | < 100 nM
22 | O=C(N1CC2(C1)CN(c1ccc(F)cn1)C2)N1CCOc2ncccc21 [8-5] | ≥ 1000 nM
23 | O=C(N1CC2(CN(Cc3cnccn3)C2)C1)N1CCOc2cc(Cl)ccc21 [2-5] | ≥ 1000 nM
24 | COc1cccc(N2CC3(CN(C(=O)N4CCOc5cc(Cl)ccc54)C3)C2)n1 [1-2] | < 100 nM
25 | O=C(N1CC2(CN(Cc3ccc(F)cn3)C2)C1)N1CCOc2cc(Cl)ccc21 [2-6] | ≥ 1000 nM
26 | Cc1ccnc(N2CC3(CN(C(=O)N4c5ccc(Cl)cc5OCC4C)C3)C2)n1 (single isomer, unassigned) [20-12-A] | ≥ 1000 nM
27 | COc1ccc2c(c1)OCC(C)N2C(=O)N1CC2(C1)CN(c1ccc(F)cn1)C2 (single isomer, unassigned) [1-59-A] | ≥ 1000 nM
28 | O=C(N1CC2(C1)CN(c1ccc(F)cc1)C2)N1CCOc2cc(Cl)ccc21 [1-40] | 100 to 500 nM
29 | O=C(N1CC2(C1)CN(c1ccc(F)cn1)C2)N1CCCS(=O)(=O)c2cc(Cl)ccc21 [1-75] | ≥ 1000 nM
30 | O=C(N1CC2(C1)CN(c1ccc(F)cn1)C2)N1CCS(=O)(=O)c2cc(Cl)ccc21 [8-17] | 100 to 500 nM
31 | CC1COc2cc(Cl)ccc2N1C(=O)N1CC2(C1)CN(c1cc(=O)n(C)cn1)C2 (single isomer, unassigned) [20-14-A] | ≥ 1000 nM
32 | Cn1ccnc1N1CC2(CN(C(=O)N3CCOc4cc(Cl)ccc43)C2)C1 [1-54] | 100 to 500 nM
33 | CC1COc2cc(Cl)ccc2N1C(=O)N1CC2(C1)CN(c1nccc(C#N)n1)C2 (single isomer, unassigned) [20-16-B] | < 100 nM
34 | O=C(N1CC2(C1)CN(c1ccc(F)cn1)C2)N1CCSc2cc(Cl)ccc21 [8-15] | < 100 nM
35 | COc1ccc(N2CC3(CN(C(=O)N4CCOc5cc(Cl)ccc54)C3)C2)nn1 [1-27] | 100 to 500 nM
36 | O=C(N1CC2(C1)CN(c1nccn3cncc13)C2)N1CCOc2cc(Cl)ccc21 [1-44] | < 100 nM
37 | O=C(N1CC2(C1)CN(c1ccc(F)cn1)C2)N1CCC(O)c2c1ccc(Cl)c2F (single isomer, unassigned) [13-5-A] | < 100 nM
38 | CCc1ccnc(N2CC3(CN(C(=O)N4c5ccc(Cl)cc5OCC4C)C3)C2)n1 (single isomer, unassigned) [18-5-A] | ≥ 1000 nM

Row | SMILES | IC50
39 | N#Cc1cnc(N2CC3(CN(C(=O)N4CCOc5cc(Cl)ccc54)C3)C2)cn1 [1-24] | 500 to 1000 nM
40 | O=C(N1CC2(CN(Cc3ccncc3)C2)C1)N1CCOc2cc(Cl)ccc21 [2-1, (7-chloro-2,3-dihydro-4H-benzo[b][1,4]oxazin-4-yl)(6-(pyridin-4-ylmethyl)-2,6-diazaspiro[3.3]heptan-2-yl)methanone] | ≥ 1000 nM
41 | CC1COc2cc(F)ccc2N1C(=O)N1CC2(C1)CN(c1cccnn1)C2 (single isomer, unassigned) [1-62-B] | < 100 nM
42 | O=C(N1CC2(C1)CN(c1cc(C(F)F)ccn1)C2)N1CCOc2cc(Cl)ccc21 [1-80] | < 100 nM
43 | CC(C)(C)OC(=O)N1CC2(C1)CN(C(=O)N1CCOc3cc(Cl)ccc31)C2 [1-61] | 500 to 1000 nM
44 | CCc1ccnc(N2CC3(CN(C(=O)N4c5ccc(Cl)cc5OCC4C)C3)C2)n1 (single isomer, unassigned) [18-5-B] | < 100 nM
45 | COc1cnc(N2CC3(CN(C(=O)N4CCOc5cc(Cl)ccc54)C3)C2)cn1 [1-23] | < 100 nM
46 | Cn1ccc2ncc(N3CC4(CN(C(=O)N5CCOc6cc(Cl)ccc65)C4)C3)cc21 [1-41] | 100 to 500 nM
47 | CCC1COc2cc(Cl)ccc2N1C(=O)N1CC2(C1)CN(c1ccc(F)cn1)C2 (stereo not drawn) [1-55] | < 100 nM
48 | O=C(N1CC2(C1)CN(c1ccc(F)cn1)C2)N1CCC(O)c2c1ccc(Cl)c2F (single isomer, unassigned) [13-5-B] | < 100 nM
49 | Cc1nccnc1N1CC2(CN(C(=O)N3c4ccc(Cl)cc4OCC3C)C2)C1 (single isomer, unassigned) [20-10-B] | ≥ 1000 nM
50 | O=C(N1CC2(C1)CN(c1ccc(F)cn1)C2)N1CCCc2cc(Cl)ccc21 [9-8] | < 100 nM
51 | O=C(N1CC2(C1)CN(c1ncccc1F)C2)N1CCC(O)c2cc(Cl)ccc21 (single isomer, unassigned) [13-4-A] | < 100 nM
52 | O=C(N1CC2(C1)CN(c1ccncn1)C2)N1CCOc2cc(Cl)ccc21 [1-74] | 100 to 500 nM
53 | CC1COc2cc(F)ccc2N1C(=O)N1CC2(C1)CN(c1ccccn1)C2 (stereo not drawn) [1-66] | < 100 nM
54 | CC1COc2cc(F)ccc2N1C(=O)N1CC2(C1)CN(c1noc3ccccc13)C2 (single isomer, unassigned) [4-3-A] | 100 to 500 nM
55 | COc1ccnc(N2CC3(CN(C(=O)N4CCOc5cc(Cl)ccc54)C3)C2)n1 [1-47] | < 100 nM
56 | O=C(N1CC2(C1)CN(c1ccn3ccnc3c1)C2)N1CCOc2cc(Cl)ccc21 [5-1, (7-chloro-2,3-dihydro-4H-benzo[b][1,4]oxazin-4-yl)(6-(imidazo[1,2-a]pyridin-7-yl)-2,6-diazaspiro[3.3]heptan-2-yl)methanone formate] | 100 to 500 nM
57 | O=C(N1CC2(C1)CN(c1cnc(Br)cn1)C2)N1CCOc2cc(Cl)ccc21 [1-19] | < 100 nM

From patent publication US12152038B2, “Vasopressin receptor antagonists and products and methods related thereto” (Neumora Therapeutics, Inc., priority 2017, dated 2024)
